Laboratory results taken from US20150258072A1, “Antibacterial compositions” (WOCKHARDT LIMITED, priority 2012, published 2015).
Read-outs that look alike come from different tables or passages of the source. One block for each compound: values may come before it.

How the values were obtained:
Type in all cases: cell-based
[1] = test system: K. pneumoniae ATCC 700603 strain producing SHV 18 ESBL; experiment: MIC by agar dilution (CLSI); conditions: Klebsiella pneumoniae
Experimental: The efficacy of compositions and methods in treating or controlling bacterial infections was studied. In a typical study, overnight grown bacterial cultures were diluted appropriately and inoculated on the agar media containing doubling dilutions of the antibiotic. Observation for growth or no growth was performed after 16-20 hours of incubation at 35±2° C. in ambient air. The overall procedure was performed as per Clinical and Laboratory Standards Institute (CLSI) recommendations (Clinical and Laboratory Standards Institute (CLSI), performance Standards for Antimicrobial Susceptibility Testing, 20th Informational Supplement, M 100-S20, Volume 30, No. 1, 2010).

[2] = test system: K. pneumoniae B 43 strain producing SHV and TEM ESBLs; experiment: Cidal activity (bacterial count over time); conditions: concentrations in label
[3] = test system: K. pneumoniae ATCC 700603 strain producing SHV 18 ESBL; experiment: Cidal activity (bacterial count over time); conditions: for Bacterial count: concentrations in label
[4] = Table 3, 2 hours, initial count 7.04 log CFU/ml
[5] = Table 3, 6 hours, initial count 7.04 log CFU/ml
[6] = Table 3, 8 hours, initial count 7.04 log CFU/ml
[7] = Table 2, 2 hours, initial count 6.65 log CFU/ml
[8] = Table 2, 6 hours, initial count 6.65 log CFU/ml
[9] = Table 2, 8 hours, initial count 6.65 log CFU/ml
[10] = Table 5, 2 hours, initial count log 7.43 CFU/ml
[11] = Table 5, 4 hours, initial count log 7.43 CFU/ml
[12] = Table 5, 8 hours, initial count log 7.43 CFU/ml
[13] = Table 4, 2 hours, initial count 7.43 log CFU/ml
[14] = Table 4, 4 hours, initial count 7.43 log CFU/ml
[15] = Table 4, 8 hours, initial count 7.43 log CFU/ml
[16] = Table 6, 2 hours, initial count 7.27 log CFU/ml
[17] = Table 6, 4 hours, initial count 7.27 log CFU/ml
[18] = Table 6, 8 hours, initial count 7.27 log CFU/ml
[19] = Table 7, 2 hours, initial count 7.27 log CFU/ml
[20] = Table 7, 4 hours, initial count 7.27 log CFU/ml
[21] = Table 7, 8 hours, initial count 7.27 log CFU/ml

MIC ([1]; ATCC700603, amoxicillin alone or with fixed concentration of partner(s) named in the label, read-out: MIC of Amoxicillin): > 64 µg/mL
SMILES: CC1(C)S[C@@H]2[C@H](NC(=O)[C@H](N)c3ccc(O)cc3)C(=O)N2[C@H]1C(=O)O [Amoxicillin, amoxicillin]
Bacterial count [2, 4]: 7.8 Log CFU/ml
Bacterial count [2, 5]: 8.8 Log CFU/ml
Bacterial count [2, 6]: 9 Log CFU/ml
Bacterial count [3, 7]: 7.84 Log CFU/ml
Bacterial count [3, 8]: 8.5 Log CFU/ml
Bacterial count [3, 9]: 9 Log CFU/ml
antibacterial activity (growth in presence of drug alone) ([3]; Table 2): no antibacterial activity

SMILES: C=CC1=C(C(=O)O)N2C(=O)[C@@H](NC(=O)/C(=N\OCC(=O)O)c3csc(N)n3)[C@H]2SC1 [Cefixime (2 mcg/ml), cefixime]
Bacterial count [2, 10]: 8.16 Log CFU/ml
Bacterial count [2, 11]: 8.47 Log CFU/ml
Bacterial count [2, 12]: 8.84 Log CFU/ml
Bacterial count [3, 13]: 8.11 Log CFU/ml
Bacterial count [3, 14]: 8.30 Log CFU/ml
Bacterial count [3, 15]: 9 Log CFU/ml

SMILES: COCC1=C(C(=O)O)N2C(=O)[C@@H](NC(=O)/C(=N\OC)c3csc(N)n3)[C@H]2SC1 [Cefpodoxime (2 mcg/ml), cefpodoxime]
Bacterial count [3, 16]: 8.54 Log CFU/ml
Bacterial count [3, 17]: 9 Log CFU/ml
Bacterial count [3, 18]: 9 Log CFU/ml

SMILES: CO/N=C(\C(=O)N[C@@H]1C(=O)N2C(C(=O)O)=C(COC(N)=O)CS[C@H]12)c1ccco1 [Cefuroxime (2 mcg/ml), cefuroxime]
Bacterial count [3, 19]: 8.77 Log CFU/ml
Bacterial count [3, 20]: 8.90 Log CFU/ml
Bacterial count [3, 21]: 9 Log CFU/ml

SMILES: O=C(O)[C@H]1/C(=C/CO)O[C@@H]2CC(=O)N21 [Clavulanic acid, clavulanic acid]
MIC ([1]; ATCC700603, read-out: MIC value when used alone): > 64 µg/mL
Bacterial count [2, 4]: 8.1 Log CFU/ml
Bacterial count [2, 5]: 8.7 Log CFU/ml
Bacterial count [2, 6]: 9 Log CFU/ml
Bacterial count [2, 10]: 8.1 Log CFU/ml
Bacterial count [2, 11]: 8.56 Log CFU/ml
Bacterial count [2, 12]: 8.85 Log CFU/ml
Bacterial count [3, 7]: 8.1 Log CFU/ml
Bacterial count [3, 8]: 8.8 Log CFU/ml
Bacterial count [3, 9]: 9 Log CFU/ml
Bacterial count [3, 13]: 8.4 Log CFU/ml
Bacterial count [3, 14]: 8.65 Log CFU/ml
Bacterial count [3, 15]: 8.9 Log CFU/ml
Bacterial count [3, 16]: 8.47 Log CFU/ml
Bacterial count [3, 17]: 9.09 Log CFU/ml
Bacterial count [3, 18]: 9.09 Log CFU/ml
Bacterial count [3, 19]: 8.47 Log CFU/ml
Bacterial count [3, 20]: 9.09 Log CFU/ml
Bacterial count [3, 21]: 9.09 Log CFU/ml
antibacterial activity (growth in presence of drug alone) ([3]; Table 2): no antibacterial activity

SMILES: C[C@@H](O)[C@H]1C(=O)N2C(C(=O)O)=C(SCCN=CN)C[C@H]12 [Imipenem, imipenem]
Bacterial count [2, 4]: 5.4 Log CFU/ml
Bacterial count [2, 5]: 3.9 Log CFU/ml
Bacterial count [2, 6]: 3.8 Log CFU/ml
Bacterial count [2, 10]: 6.37 Log CFU/ml
Bacterial count [2, 11]: 5.69 Log CFU/ml
Bacterial count [2, 12]: 6.60 Log CFU/ml
Bacterial count [3, 7]: 5.32 Log CFU/ml
Bacterial count [3, 8]: 2.6 Log CFU/ml
Bacterial count [3, 9]: 2.0 Log CFU/ml
Bacterial count [3, 13]: 4.87 Log CFU/ml
Bacterial count [3, 14]: 3.39 Log CFU/ml
Bacterial count [3, 15]: 2.84 Log CFU/ml
Bacterial count [3, 16]: 5.32 Log CFU/ml
Bacterial count [3, 17]: 3.84 Log CFU/ml
Bacterial count [3, 18]: 2.32 Log CFU/ml
Bacterial count [3, 19]: 5.32 Log CFU/ml
Bacterial count [3, 20]: 3.84 Log CFU/ml
Bacterial count [3, 21]: 2.32 Log CFU/ml

MIC ([1]; ATCC700603, agent used alone, read-out: MIC value when used alone): > 64 µg/mL
SMILES: CC1(C)S[C@@H]2[C@H](/N=C/N3CCCCCC3)C(=O)N2[C@H]1C(=O)O [Mecillinam, mecillinam]
Bacterial count [2, 4]: 7.74 Log CFU/ml
Bacterial count [2, 5]: 8.69 Log CFU/ml
Bacterial count [2, 6]: 8.89 Log CFU/ml
Bacterial count [2, 10]: 8.39 Log CFU/ml
Bacterial count [2, 11]: 8.60 Log CFU/ml
Bacterial count [2, 12]: 8.90 Log CFU/ml
Bacterial count [3, 7]: 7.47 Log CFU/ml
Bacterial count [3, 8]: 8.23 Log CFU/ml
Bacterial count [3, 9]: 9.1 Log CFU/ml
Bacterial count [3, 13]: 7.95 Log CFU/ml
Bacterial count [3, 14]: 8.33 Log CFU/ml
Bacterial count [3, 15]: 8.90 Log CFU/ml
Bacterial count [3, 16]: 8.23 Log CFU/ml
Bacterial count [3, 17]: 8.74 Log CFU/ml
Bacterial count [3, 18]: 9.47 Log CFU/ml
Bacterial count [3, 19]: 8.23 Log CFU/ml
Bacterial count [3, 20]: 8.74 Log CFU/ml
Bacterial count [3, 21]: 9.47 Log CFU/ml
antibacterial activity (growth in presence of drug alone) ([3]; Table 2): no antibacterial activity
